{"source": "paper PMC10111413", "about": "(ACS Infectious Diseases, 2023)", "key": {"[1]": {"test_system": "sheep red blood cells", "test": "Hemolytic assay", "format": "cell-based", "settings": "128 μg/mL, 1 h at 37 °C, sheep red blood cells in PBS with 0.002% Tween20, read-out 415 nm, relative to 0.1% Triton X-100, triplicate", "protocol": "Figure S2. Hemolytic activity of compounds 3a-5 at 128 µg/mL and 1 h incubation against sheep red […]\nunder the same conditions.\nExperiments were performed in triplicate and Triton X-100 used as a positive control. Red blood cells from defibrinated sheep blood obtained from Thermo Fisher were centrifuged (400 g for 15 min at 4°C) and washed with Phosphate-Buffered Saline (PBS) containing 0.002% Tween20 (buffer) five times. Then, the red blood cells were normalized to obtain a positive control read-out between 2.5 and 3.0 at 415 nm to stay within the linear range with the maximum sensitivity. A serial dilution of the compounds (128 – 1 µg/mL, 75 µL) was prepared in a 96-well polypropylene plate. The outer border of the plate was filled with 75 µL buffer. Each plate contained a positive control (0.1% Triton-X final concentration, 75 µL) and a negative control (buffer, 75 µL) in triplicate. The normalized blood cells (75 µL) were added and the plates were incubated at 37 °C for 1 h while shaking at 500 rpm. A flat - bottom polystyrene plate with 100 µL buffer in each well was prepared. […] The values obtained from a read-out at 415 nm were corrected for background (negative control) and transformed to a percentage relative to the positive […]"}, "[2]": {"test_system": "colistin-resistant A. baumannii isolate BV94", "test": "G. mellonella larvae infection model", "format": "in vivo", "settings": "injected 1 h postinfection, 10^5 cfu A. baumannii BV94 per larva, ten larvae per group, 37 °C", "excerpt": "Given the promising in vitro activity of relacidamide (5), along with its high serum stability, low hemolytic activity, and ease of synthesis, we further evaluated its efficacy in an established in vivo infection model using G. mellonella larvae. The G. mellonella infection model has gained popularity in recent years and provides a convenient method to assess the in vivo effectiveness and toxicity of novel antibiotics.[15],[16] […] The larvae were first injected with either vehicle (PBS) or A. baumannii BV94 suspension in the right second proleg. The moth larvae were then injected in the left second proleg with either PBS (untreated), colistin at 100 mg/kg or 200 mg/kg, or relacidamide (5) at 100 mg/kg or 200 mg/kg. The G. mellonella larvae were then incubated for 72 h, and their survival was assessed twice per day. […]\nTen G. mellonella larvae (Serum Therapeutics Inc., average weight of 0.265 g) per group were infected using a 10 μL injection in the right second proleg with mid-log phase (OD600 = 0.5)-growing bacteria resuspended and diluted in phosphate-buffered saline (PBS) to achieve the target inoculum of 10^5 colony forming unit (cfu) per larva. […] The viability of the larvae was assessed twice a day up to a total of 72 h postinfection by checking for movement. […]"}}}
{"substance": "colistin [reference compound]", "values": [{"measurement": "hemolysis", "setting": "[1]", "result": "< 0.1", "unit": "%"}, {"measurement": "survival of G. mellonella larvae after 72 h", "setting": "[2]; 100 mg/kg", "result": "none"}, {"measurement": "survival of G. mellonella larvae after 72 h", "setting": "[2]; 200 mg/kg", "result": "none"}]}
